Experimental data: US10294202B2, “Pyrrolidinones as herbicides” (FMC Corporation, priority 2013, dated 2019)

What was measured:
wheat = assay: Test A pre-/postemergence herbicide test; format: in vivo, Triticum aestivum; conditions: Postemergence
Outline: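 Approximately 10 days after treatment in the greenhouse, plants were compared with untreated controls and given a 0–100 visual injury rating. Applications: preemergence directed soil spray; postemergence on 2–10 cm plants at the one- to two-leaf stage.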

wheat (winter wheat) = assay: Test C pre-/postemergence herbicide test; format: in vivo, Triticum aestivum
Outline: (§1)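 Plants grown and held in a greenhouse for 13 to 15 days post-spray, then rated 0–100 by visual comparison with controls. Pre treatments targeted seeds in loam and sand; post treatments targeted 1- to 4-leaf plants in peat-based potting medium.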

galium = assay: Test C pre-/postemergence herbicide test; format: in vivo, Galium aparine; conditions: Preemergence; for Plant response rating, Galium: 125 g ai/ha, scale 0 to 100; for Plant response rating (scale of 0 to 100), Galium: 250 g ai/ha
Outline: as §1

sedge, umbrella = assay: Test B flooded paddy test; format: in vivo, Cyperus difformis; conditions: 500 g ai/ha, Flood; scale of 0 to 100 where 0 is no effect and 100 is complete control
Outline: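 Visual ratings from 0, meaning no effect, up to 100, meaning complete control, were made by comparison with untreated controls 13 to 15 days after treatment. Test compounds went straight into floodwater standing 3 cm over the soil of pots holding 2-leaf seedlings.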

blackgrass = assay: Test C pre-/postemergence herbicide test; format: in vivo, Alopecurus myosuroides
Outline: as §1

waterhemp = assay: Test C pre-/postemergence herbicide test; format: in vivo, Amaranthus rudis
Outline: as §1

crabgrass, large = assay: Test C pre-/postemergence herbicide test; format: in vivo, Digitaria sanguinalis
Outline: as §1

lambsquarters = assay: Test C pre-/postemergence herbicide test; format: in vivo, Chenopodium album
Outline: as §1

pigweed = assay: Test C pre-/postemergence herbicide test; format: in vivo, Amaranthus retroflexus
Outline: as §1

morningglory = assay: Test C pre-/postemergence herbicide test; format: in vivo, Ipomoea coccinea
Outline: as §1

johnsongrass = assay: Test C pre-/postemergence herbicide test; format: in vivo, Sorghum halepense
Outline: as §1

[1] = 125 g ai/ha, visual rating on 0 to 100 scale (0 no effect, 100 complete control), approx. 10 days
[2] = 500 g ai/ha, 0 to 100 scale (0 no effect, 100 complete control)
[3] = Postemergence, 31 g ai/ha, scale 0 to 100 (0 no effect, 100 complete control)
[4] = Postemergence, 62 g ai/ha, scale 0 (no effect) to 100 (complete control)
[5] = Postemergence, 125 g ai/ha, scale 0 to 100 (0 no effect, 100 complete control)
[6] = Postemergence, 250 g ai/ha, scale 0 to 100 (0 no effect, 100 complete control)
[7] = Preemergence, 62 g ai/ha, scale 0 to 100 (0 no effect, 100 complete control)
[8] = Preemergence, 125 g ai/ha, scale 0 to 100
[9] = 31 g ai/ha, scale 0 to 100, 0 is no effect and 100 is complete control
[10] = 62 g ai/ha, scale 0 to 100 (0 no effect, 100 complete control)
[11] = Preemergence, 31 g ai/ha, scale 0 to 100, 0 is no effect and 100 is complete control

O=C1NCC(c2cccc(C(F)(F)F)c2)C1C(=O)Nc1cccc(Cl)c1F (stereo not drawn) [Compound 316]
55: Plant response rating, Waterhemp (waterhemp; [6]) | Plant response rating, Lambsquarters (lambsquarters; [3]) | Plant response rating, Morningglory (morningglory; [3])
85: Plant response rating (scale of 0 to 100), Johnsongrass (johnsongrass; Preemergence, 250 g ai/ha)
0: Plant response rating, Wheat (wheat (winter wheat); [3]) | Plant response rating, Wheat (wheat (winter wheat); [4]) | Plant response rating, Wheat (wheat (winter wheat); [5]) | Plant response rating, Wheat (wheat (winter wheat); [6]) | Galium plant response rating (galium; [9]) | Galium plant response rating (galium; [10]) | Plant response rating, Galium (galium) | Plant response rating, Sedge, Umbrella (sedge, umbrella) | Plant response rating, Blackgrass (blackgrass; [3]) | Plant response rating, Blackgrass (blackgrass; [4]) | Plant response rating, Blackgrass (blackgrass; [5]) | Plant response rating, Blackgrass (blackgrass; [6]) | Blackgrass plant response rating (blackgrass; [11]) | Blackgrass plant response rating (blackgrass; [7]) | Plant response rating, Crabgrass, Large (crabgrass, large; [3]) | Lambsquarters plant response rating (lambsquarters; [11]) | Plant response rating, Morningglory (morningglory; [4]) | Morningglory plant response rating (morningglory; [11]) | Morningglory plant response rating (morningglory; [7]) | Plant response rating, Johnsongrass (johnsongrass; [3]) | Plant response rating, Johnsongrass (johnsongrass; [4]) | Plant response rating, Johnsongrass (johnsongrass; [5]) | Plant response rating, Johnsongrass (johnsongrass; [6])
60: Plant response rating (scale of 0 to 100), Blackgrass (blackgrass; Preemergence, 250 g ai/ha) | Plant response rating, Crabgrass, Large (crabgrass, large; [5]) | Plant response rating, Pigweed (pigweed; [5])
10: Plant response rating, Waterhemp (waterhemp; [3]) | Plant response rating, Waterhemp (waterhemp; [4]) | Plant response rating, Waterhemp (waterhemp; [5]) | Plant response rating, Morningglory (morningglory; [5]) | Plant response rating, Morningglory (morningglory; [6])
45: Plant response rating, Pigweed (pigweed; [8])
30: Plant response rating, Blackgrass (blackgrass; [8])
5: Wheat plant response rating (wheat (winter wheat); [7])
25: Pigweed plant response rating (pigweed; [11]) | Pigweed plant response rating (pigweed; [7]) | Plant response rating, Morningglory (morningglory; [8])
75: Plant response rating, Pigweed (pigweed; [6]) | Johnsongrass plant response rating (johnsongrass; [7]) | Plant response rating, Johnsongrass (johnsongrass; [8])
90: Plant response rating (scale of 0 to 100), Galium (galium) | Crabgrass, Large plant response rating (crabgrass, large; [11])
40: Plant response rating, Wheat (wheat; [2]) | Plant response rating, Wheat (wheat (winter wheat); [8]) | Plant response rating, Lambsquarters (lambsquarters; [5])
65: Plant response rating, Lambsquarters (lambsquarters; [4]) | Plant response rating, Lambsquarters (lambsquarters; [6]) | Plant response rating, Lambsquarters (lambsquarters; [8]) | Plant response rating (scale of 0 to 100), Lambsquarters (lambsquarters; Preemergence, 250 g ai/ha)
15: Plant response rating, Pigweed (pigweed; [3])
98: Plant response rating (scale of 0 to 100), Crabgrass, Large (crabgrass, large; Preemergence, 250 g ai/ha)
20: Plant response rating, Wheat (wheat; [1]) | Lambsquarters plant response rating (lambsquarters; [7])
50: Plant response rating, Crabgrass, Large (crabgrass, large; [4]) | Plant response rating, Pigweed (pigweed; [4]) | Johnsongrass plant response rating (johnsongrass; [11])
35: Waterhemp plant response rating (waterhemp; [7]) | Plant response rating, Waterhemp (waterhemp; [8]) | Plant response rating (scale of 0 to 100), Morningglory (morningglory; Preemergence, 250 g ai/ha)
95: Crabgrass, Large plant response rating (crabgrass, large; [7]) | Plant response rating, Crabgrass, Large (crabgrass, large; [8])
70: Plant response rating, Crabgrass, Large (crabgrass, large; [6])

Cc1cccc(NC(=O)C2C(=O)NCC2c2cccc(C(F)(F)F)c2)c1 (stereo not drawn) [Compound 317]
95: Crabgrass, Large plant response rating (crabgrass, large; [11]) | Crabgrass, Large plant response rating (crabgrass, large; [7]) | Plant response rating, Crabgrass, Large (crabgrass, large; [8])
25: Plant response rating, Crabgrass, Large (crabgrass, large; [4]) | Plant response rating, Lambsquarters (lambsquarters; [5]) | Plant response rating, Lambsquarters (lambsquarters; [6]) | Morningglory plant response rating (morningglory; [11])
98: Plant response rating (scale of 0 to 100), Crabgrass, Large (crabgrass, large; Preemergence, 250 g ai/ha)
20: Plant response rating, Wheat (wheat; [2]) | Plant response rating, Waterhemp (waterhemp; [5])
5: Plant response rating, Pigweed (pigweed; [3]) | Plant response rating, Pigweed (pigweed; [4]) | Plant response rating, Pigweed (pigweed; [5]) | Plant response rating, Pigweed (pigweed; [6]) | Plant response rating, Johnsongrass (johnsongrass; [6])
50: Plant response rating, Blackgrass (blackgrass; [8]) | Plant response rating (scale of 0 to 100), Blackgrass (blackgrass; Preemergence, 250 g ai/ha) | Plant response rating, Crabgrass, Large (crabgrass, large; [6])
30: Plant response rating (scale of 0 to 100), Johnsongrass (johnsongrass; Preemergence, 250 g ai/ha)
45: Plant response rating, Crabgrass, Large (crabgrass, large; [5])
10: Plant response rating, Waterhemp (waterhemp; [8]) | Plant response rating (scale of 0 to 100), Lambsquarters (lambsquarters; Preemergence, 250 g ai/ha) | Plant response rating, Morningglory (morningglory; [6])
0: Plant response rating, Wheat (wheat; [1]) | Plant response rating, Wheat (wheat (winter wheat); [3]) | Plant response rating, Wheat (wheat (winter wheat); [4]) | Plant response rating, Wheat (wheat (winter wheat); [5]) | Plant response rating, Wheat (wheat (winter wheat); [6]) | Wheat plant response rating (wheat (winter wheat); [7]) | Plant response rating, Wheat (wheat (winter wheat); [8]) | Galium plant response rating (galium; [9]) | Galium plant response rating (galium; [10]) | Plant response rating, Galium (galium) | Plant response rating (scale of 0 to 100), Galium (galium) | Plant response rating, Sedge, Umbrella (sedge, umbrella) | Plant response rating, Blackgrass (blackgrass; [3]) | Plant response rating, Blackgrass (blackgrass; [4]) | Plant response rating, Blackgrass (blackgrass; [5]) | Plant response rating, Blackgrass (blackgrass; [6]) | Blackgrass plant response rating (blackgrass; [11]) | Plant response rating, Waterhemp (waterhemp; [3]) | Plant response rating, Waterhemp (waterhemp; [4]) | Plant response rating, Waterhemp (waterhemp; [6]) | Waterhemp plant response rating (waterhemp; [7]) | Plant response rating, Crabgrass, Large (crabgrass, large; [3]) | Plant response rating, Lambsquarters (lambsquarters; [3]) | Plant response rating, Lambsquarters (lambsquarters; [4]) | Lambsquarters plant response rating (lambsquarters; [11]) | Lambsquarters plant response rating (lambsquarters; [7]) | Plant response rating, Lambsquarters (lambsquarters; [8]) | Pigweed plant response rating (pigweed; [11]) | Pigweed plant response rating (pigweed; [7]) | Plant response rating, Pigweed (pigweed; [8]) | Plant response rating, Morningglory (morningglory; [3]) | Plant response rating, Morningglory (morningglory; [4]) | Plant response rating, Morningglory (morningglory; [5]) | Morningglory plant response rating (morningglory; [7]) | Plant response rating, Morningglory (morningglory; [8]) | Plant response rating (scale of 0 to 100), Morningglory (morningglory; Preemergence, 250 g ai/ha) | Plant response rating, Johnsongrass (johnsongrass; [3]) | Plant response rating, Johnsongrass (johnsongrass; [4]) | Plant response rating, Johnsongrass (johnsongrass; [5]) | Johnsongrass plant response rating (johnsongrass; [11]) | Johnsongrass plant response rating (johnsongrass; [7]) | Plant response rating, Johnsongrass (johnsongrass; [8])
40: Blackgrass plant response rating (blackgrass; [7])
